Source: US12195482B1 (Arcus Biosciences, Inc., priority 2022, dated 2025)

What was measured:
Axl = target: T1, Axl (Homo sapiens, UniProt P30530); assay: Biochemical potency, HTRF KinEASE-TK kinase assay; design: purchased Invitrogen; details: 5 nM AXL, 700 μM ATP
T1 sequence (P30530 26-894): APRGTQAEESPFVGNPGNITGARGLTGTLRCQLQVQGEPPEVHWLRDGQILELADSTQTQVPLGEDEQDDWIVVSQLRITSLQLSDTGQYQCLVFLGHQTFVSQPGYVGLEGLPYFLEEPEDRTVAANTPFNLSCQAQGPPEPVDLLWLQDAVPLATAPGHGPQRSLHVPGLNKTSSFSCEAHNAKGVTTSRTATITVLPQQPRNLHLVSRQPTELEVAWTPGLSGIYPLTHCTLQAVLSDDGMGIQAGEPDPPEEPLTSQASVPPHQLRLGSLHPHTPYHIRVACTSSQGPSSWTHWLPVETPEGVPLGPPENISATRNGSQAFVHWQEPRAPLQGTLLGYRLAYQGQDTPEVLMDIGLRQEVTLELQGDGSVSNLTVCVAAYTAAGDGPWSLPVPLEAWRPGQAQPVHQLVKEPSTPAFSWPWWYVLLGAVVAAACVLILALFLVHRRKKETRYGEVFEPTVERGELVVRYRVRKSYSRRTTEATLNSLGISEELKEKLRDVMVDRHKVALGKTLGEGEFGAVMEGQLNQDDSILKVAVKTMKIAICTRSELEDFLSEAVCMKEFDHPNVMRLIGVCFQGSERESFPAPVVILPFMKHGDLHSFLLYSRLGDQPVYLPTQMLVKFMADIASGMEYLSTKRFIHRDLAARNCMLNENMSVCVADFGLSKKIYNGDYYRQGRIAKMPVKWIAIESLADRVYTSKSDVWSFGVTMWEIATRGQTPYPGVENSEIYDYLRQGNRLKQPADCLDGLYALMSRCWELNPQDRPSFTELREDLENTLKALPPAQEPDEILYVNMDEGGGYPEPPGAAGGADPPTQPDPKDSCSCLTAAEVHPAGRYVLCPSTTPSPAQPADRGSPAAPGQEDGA
Procedure, shortened: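 Enzyme (AXL 5 nM; TYRO3 or MER 1 nM final) was preincubated with compound for 1 h at RT, then reacted for 2 h at RT with 800 nM biotinylated TK substrate and 700 µM ATP in HEPES pH 7.4, MgCl2, DTT, BSA, 1% DMSO. Percent activity came from the HTRF 665/620 ratio.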

p-AXL = target: T2, p-AXL (Homo sapiens, UniProt P30530); assay: Axl phosphorylation inhibition ELISA in HEK293T cells transfected with NanoLuc-tagged AXL; format: cell-based; details: 1 h compound incubation, media (OptiMEM)
T2 construct: expressed in transfected cells; host or cells: HEK293T
T2 sequence (P30530 26-894): T1 sequence (P30530 26-894)
Procedure, shortened: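 HEK293T cells transiently transfected one day earlier with NanoLuc-tagged AXL were exposed to 22-point 2-fold compound dilutions for 1 h at 37° C (70,000 cells/well), then lysed. Lysates captured on anti-phospho-tyrosine coated plates for 2 h; bound p-AXL read by NanoLuc luminescence; IC50 from 4-parameter logistic fit.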

| SMILES | IC50 (Axl) [nM] | IC50 (p-AXL) [nM] |
| --- | --- | --- |
| CN(C)C(=O)c1cccnc1-c1ccc(-c2c[nH]c3ncc(-c4ccc5c(c4)CC[C@@H](N4C6COCC4C6)CC5)cc23)cc1 [Example 165, N,N-Dimethyl-2-(4-{5-[(7S)-7-{3-oxa-6-azabicyclo[3.1.1]heptan-6-yl}-6,7,8,9-tetrahydro-5H-benzo[7]annulen-2-yl]-1H-pyrrolo[2,3-b]pyridin-3-yl}phenyl)pyridine-3-carboxamide] | < 100 | < 100 |
| Cc1cccnc1-c1ccc(-c2n[nH]c3ncc(-c4ccc5c(c4)CC[C@@H](N[C@H]4CCCOC4)CC5)cc23)cc1 [Example 129, (3S)—N-[(7S)-2-{3-[4-(3-Methylpyridin-2-yl)phenyl]-1H-pyrazolo[3,4-b]pyridin-5-yl}-6,7,8,9-tetrahydro-5H-benzo[7]annulen-7-yl]oxan-3-amine] | < 100 | < 100 |
| FC(F)(F)Oc1cccnc1-c1ccc(-c2c[nH]c3ncc(-c4ccc5c(c4)CC[C@@H](N4C6COCC4C6)CC5)cc23)cc1 [Example 103, 6-[(7S)-2-(3-{4-[3-(Trifluoromethoxy)pyridin-2-yl]phenyl}-1H-pyrrolo[2,3-b]pyridin-5-yl)-6,7,8,9-tetrahydro-5H-benzo[7]annulen-7-yl]-3-oxa-6-azabicyclo[3.1.1]heptane] | < 100 | > 1000 |
| CCc1cccnc1-c1ccc(-c2c[nH]c3ncc(-c4ccc5c(c4)CC[C@@H](N4C6COCC4C6)CC5)cc23)cc1 [Example 183, 6-[(7S)-2-{3-[4-(3-Ethylpyridin-2-yl)phenyl]-1H-pyrrolo[2,3-b]pyridin-5-yl}-6,7,8,9-tetrahydro-5H-benzo[7]annulen-7-yl]-3-oxa-6-azabicyclo[3.1.1]heptane] | < 100 | < 100 |
| CCc1cccnc1-c1ccc(-c2n[nH]c3ncc(-c4ccc5c(c4)CC[C@@H](N4C6COCC4C6)CC5)cc23)cc1 [Example 182, 6-[(7S)-2-{3-[4-(3-Ethylpyridin-2-yl)phenyl]-1H-pyrazolo[3,4-b]pyridin-5-yl}-6,7,8,9-tetrahydro-5H-benzo[7]annulen-7-yl]-3-oxa-6-azabicyclo[3.1.1]heptane] | < 100 | < 100 |
| Cc1cccnc1-c1ccc(-c2c[nH]c3ncc(-c4ccc5c(c4)CC[C@@H](N4C6COCC4C6)CC5)cc23)nc1 [Example 96, 3-Methyl-6′-{5-[(7S)-7-{3-oxa-6-azabicyclo[3.1.1]heptan-6-yl}-6,7,8,9-tetrahydro-5H-benzo[7]annulen-2-yl]-1H-pyrrolo[2,3-b]pyridin-3-yl}-2,3′-bipyridine] | < 100 | < 100 |
| CN(C)S(=O)(=O)c1cccnc1-c1ccc(-c2c[nH]c3ncc(-c4ccc5c(c4)CC[C@@H](N4C6COCC4C6)CC5)cc23)cc1 [Example 6, N,N-Dimethyl-2-(4-{5-[(7S)-7-{3-oxa-6-azabicyclo[3.1.1]heptan-6-yl}-6,7,8,9-tetrahydro-5H-benzo[7]annulen-2-yl]-1H-pyrrolo[2,3-b]pyridin-3-yl}phenyl)pyridine-3-sulfonamide] | < 100 | < 100 |
| Cc1nn(C)nc1-c1ccc(-c2n[nH]c3ncc(-c4ccc5c(c4)CC[C@@H](N4C6COCC4C6)CC5)cc23)cc1 [Example 14, 6-[(7S)-2-{3-[4-(2,5-Dimethyl-2H-1,2,3-triazol-4-yl)phenyl]-1H-pyrazolo[3,4-b]pyridin-5-yl}-6,7,8,9-tetrahydro-5H-benzo[7]annulen-7-yl]-3-oxa-6-azabicyclo[3.1.1]heptane] | < 100 | < 100 |

Next, values leading:

| IC50 (Axl) [nM] | IC50 (p-AXL) [nM] | SMILES |
| --- | --- | --- |
| < 100 | < 100 | CS(=O)(=O)c1cccnc1-c1ccc(-c2c[nH]c3ncc(-c4ccc5c(c4)CC[C@@H](N4C6COCC4C6)CC5)cc23)cc1 [Example 102, 6-[(7S)-2-{3-[4-(3-Methanesulfonylpyridin-2-yl)phenyl]-1H-pyrrolo[2,3-b]pyridin-5-yl}-6,7,8,9-tetrahydro-5H-benzo[7]annulen-7-yl]-3-oxa-6-azabicyclo[3.1.1]heptane] |
| < 100 | < 100 | Cc1ccc(C)c(-c2ccc(-c3n[nH]c4ncc(-c5ccc6c(c5)CC[C@@H](N5C7COCC5C7)CC6)cc34)cc2)n1 [Example 120, 6-[(7S)-2-{3-[4-(3,6-Dimethylpyridin-2-yl)phenyl]-1H-pyrazolo[3,4-b]pyridin-5-yl}-6,7,8,9-tetrahydro-5H-benzo[7]annulen-7-yl]-3-oxa-6-azabicyclo[3.1.1]heptane] |
| < 100 | 100 to 1000 | Cc1cc(F)cnc1-c1ccc(-c2c[nH]c3ncc(-c4ccc5c(c4)CC[C@@H](N4C6COCC4C6)CC5)cc23)cc1 [Example 29, 6-[(7S)-3-[3-[4-(5-Fluoro-3-methylpyridin-2-yl)phenyl]-1H-pyrrolo[2,3-b]pyridin-5-yl]-6,7,8,9-tetrahydro-5H-benzo[7]annulen-7-yl]-3-oxa-6-azabicyclo[3.1.1]heptane] |
| < 100 | < 100 | CC(C)(O)c1ccccc1-c1ccc(-c2c[nH]c3ncc(-c4ccc5c(c4)CC[C@@H](N4C6COCC4C6)CC5)cc23)cn1 [Example 114, 2-[2-(5-{5-[(7S)-7-{3-Oxa-6-azabicyclo[3.1.1]heptan-6-yl}-6,7,8,9-tetrahydro-5H-benzo[7]annulen-2-yl]-1H-pyrrolo[2,3-b]pyridin-3-yl}pyridin-2-yl)phenyl]propan-2-ol] |
| < 100 | < 100 | Cc1cccnc1-c1ccc(-c2n[nH]c3ncc(-c4ccc5c(c4)CC[C@@](C)(N4CCC[C@H]4C)CC5)cc23)cc1 [Example 163, 3-Methyl-2-(4-{5-[(7S)-7-methyl-7-[(2R)-2-methylpyrrolidin-1-yl]-6,7,8,9-tetrahydro-5H-benzo[7]annulen-2-yl]-2H-pyrazolo[3,4-b]pyridin-3-yl}phenyl)pyridine] |
| < 100 | 100 to 1000 | Cc1ccc(-c2ccc(-c3n[nH]c4ncc(-c5ccc6c(c5)CC[C@@H](N5C7COCC5C7)CC6)cc34)cc2)nc1 [Example 115, 6-[(7S)-2-{3-[4-(5-Methylpyridin-2-yl)phenyl]-1H-pyrazolo[3,4-b]pyridin-5-yl}-6,7,8,9-tetrahydro-5H-benzo[7]annulen-7-yl]-3-oxa-6-azabicyclo[3.1.1]heptane] |
